Holding throughout (assay): NCI tumour cell line growth inhibition, 48 h
The test system of assay [1] is HT29 colon.
Assay [2] has as its system SK-MEL-5 melanoma.
The subject of assay [3] is SK-OV-3 ovarian.
The subject of assay [4] is HOP-62 NSCLC.
Assay [5] deals with SNB-75 CNS.
Assay [6] concerns OVCAR-3 ovarian.
For assay [7], the system named is CAKI-1 renal.
Assay [8] concerns HCC-2998 colon.
Assay [9] relates to SF-539 CNS.
The subject of assay [10] is U251 CNS.

Where “and” joins values, the source holds several entries; their conditions need not be identical. Equal values may be shown once.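 Step 1: Grow cells in 96-well plates. Step 2: Expose to compound for 48 hours at 5 concentrations. Step 3: Interpolate endpoints linearly; if unreached, use highest concentration. GI50 marks 50% less growth. TGI denotes the concentration required for complete inhibition of growth.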

Regarding `COC(=O)C1=C(c2cc(OC)c(OC)c(OC)c2)OC(c2cc(OC)c(OC)c(OC)c2)C1` (stereo not given), the TGI in assay [1] is 58.5 µM; in [2] it was 32.6 µM; in assay [3], 71 µM; in assay [4], more than 100 µM; in assay [5] it was 78.1 µM; in [6], 48.6 µM. Besides, the TGI in assay [7] was determined as 60.9 µM; in assay [8], 41.4 µM; in [9] it was 75.1 µM; in assay [10], 44.2 µM.

Consider `c1cc[c]([Sn]([O]c2cccc3cccnc23)([c]2ccccc2)[c]2ccccc2)cc1`, for which the GI50 is 0.0311 µM in assay [1]; 0.0186 µM in [2]; 0.0192 µM in [3]; 0.0482 µM in [4]; 0.0509 µM in assay [5]; 0.0171 µM in [6]. In addition, the GI50 in [7] was 0.0188 µM; in [8], 0.0236 µM; in assay [9] it was 0.0195 µM; in assay [10], 0.0184 µM. In addition, the TGI was found to be 0.095 µM in [1]; 0.0422 µM in assay [2]; 0.038 µM in [3]; 0.145 µM in assay [4]; 0.198 µM in assay [5]; 0.0337 µM in assay [6]. In addition, the TGI turned out to be 0.0852 µM in assay [7], 0.0625 µM in assay [8], 0.0387 µM in assay [9] and 0.0374 µM in [10].

As to `Cc1nc(C)c(C(=O)NNC(=O)c2ccccc2)cc1C(=O)NNC(=O)c1ccccc1`, the TGI is more than 100 µM in assay [1]; more than 100 µM in assay [2]; more than 100 µM in assay [3]; more than 100 µM in assay [4]; more than 10 µM in assay [5]; more than 100 µM in [6]. Further, the TGI in assay [7], in assay [8], in assay [9] and in [10] was more than 100 µM in each case.

Regarding `Cn1ccnc1C(=O)/C=C/c1ccc(CC(=O)Nc2cc(F)c(F)c(F)c2)cc1`, the GI50 in assay [1] is 0.861 µM; in assay [2], 3.25 µM; in [3], 5.59 µM; in assay [4], 1.17 µM; in [5], 0.867 µM; in assay [6], 1.36 µM. Further, the GI50 in assay [7] was 2.27 µM; in assay [8], 2.55 µM; in assay [9] it was 1.5 µM; in [10], 0.837 µM. Also, the TGI in assay [1] is 12.7 µM; in assay [2] it was 6.47 µM; in assay [3], more than 25 µM; in [4], 4.94 µM; in [5] it was more than 25 µM; in assay [6], 4.44 µM. Moreover, the TGI is 7.54 µM in assay [7], 6.04 µM in [8], 4.68 µM in assay [9] and 3.2 µM in [10].

For the compound `C/C(=N/OCCC(=O)O)C1CC1`, the TGI in assay [1], in assay [2], in assay [3], in [4], in assay [5] and in assay [6] was more than 100 µM throughout. Further, the TGI in assay [7], in [8], in [9] and in assay [10] was more than 100 µM in each case.

Turning to `N#CC(N)(C(=O)C(=O)NCCCNC(=O)C(=O)C(N)(C#N)c1ccc(Cl)cc1)c1ccc(Cl)cc1` (stereo not given), the TGI in assay [1], in assay [2], in assay [3], in assay [4], in assay [5] and in assay [6] was more than 100 µM throughout. In addition, the TGI in assay [7], in assay [8], in [9] and in assay [10] was more than 100 µM each time.

On to `CCn1c(-c2nonc2N)nc2c(C#CC(C)(C)O)ncc(OCC3CCNCC3)c21`, for which the GI50 was 10.4 µM in [1]; 8.87 µM in [2]; 10.4 µM in assay [3]; 11.5 µM in assay [4]; 2.74 µM in assay [5]; 7.07 µM in assay [6]. In addition, the GI50 in assay [7] was 17.2 µM; in assay [8], 11.4 µM; in assay [9] it was 3.36 µM; in assay [10] it was 3.99 µM. Also, the TGI is more than 25 µM in [1]; more than 21.2 µM in assay [2]; more than 25 µM in [3]; more than 25 µM in assay [4]; more than 23.3 µM in assay [5]; more than 23.6 µM in assay [6]. In addition, the TGI is more than 25 µM in assay [7], more than 25 µM in [8], more than 20.7 µM in assay [9] and more than 25 µM in [10].

Take `CCC[CH2][Sn]1([CH2]CCC)[O]N=Cc2ccccc2[O]1`: the GI50 in assay [1] was 1.75 µM; in assay [2], 1.46 µM; in assay [3], 2.96 µM; in assay [4] it was 1.62 µM; in assay [5] it was 0.359 µM; in assay [6], 0.402 µM. The GI50 is 0.322 µM in assay [7], 1.32 µM in assay [8], 1.17 µM in [9] and 0.387 µM in assay [10]. Further, the TGI is 3.36 µM in assay [1]; 2.83 µM in [2]; 6.15 µM in assay [3]; 3.12 µM in assay [4]; 1.54 µM in assay [5]; 1.57 µM in assay [6]. In addition, the TGI was 1.08 µM in [7], 2.83 µM in [8], 2.43 µM in assay [9] and 1.41 µM in assay [10].

Regarding `CCN(CC)c1ccc(/C=C2/NC(=O)NC2=O)cc1`, the GI50 in assay [1] is 2.83 µM; in [2], 3.19 µM; in [3], 6.84 µM; in assay [4], 10 µM; in assay [5], 4.01 µM; in assay [6] it was 2.41 µM. Moreover, the GI50 is 6.19 µM in assay [7], 16.2 µM in assay [8], 5.57 µM in assay [9] and 6.05 µM in assay [10]. Further, the TGI was more than 100 µM in assay [1]; more than 74.9 µM in [2]; more than 100 µM in assay [3]; more than 100 µM in assay [4]; more than 100 µM in assay [5]; 7.18 µM in [6]. In addition, the TGI in [7] is more than 100 µM; in assay [8], more than 100 µM; in [9], 53.6 µM; in assay [10] it was more than 100 µM.

Consider `O=[N+]([O-])C1(CO)COC2(OC1)c1ccccc1-c1ccccc12`, for which the TGI in assay [1], in assay [2], in [3], in [4], in [5] and in [6] was more than 100 µM in each case. Also, the TGI in assay [7] is more than 100 µM; in [8] it was more than 100 µM; in [9] it was more than 85.6 µM; in assay [10], more than 100 µM.

Consider `COc1ccc2nc(NC(=O)C(=O)C(C#N)c3ccc(CC#N)cc3)sc2c1` (stereo not given), for which the TGI in assay [1], in [2], in [3], in assay [4], in [5] and in assay [6] was more than 100 µM throughout. Moreover, the TGI in assay [7], in assay [8], in [9] and in [10] was more than 100 µM in each case.

Consider `Nc1cc2ccncc2c2ccccc12`, for which the GI50 in assay [1] was 13.2 µM; in assay [2], 15.3 µM; in assay [3] it was 13.6 µM; in assay [4], 13.7 µM; in assay [5] it was 16.1 µM; in [6], 18.8 µM. For the same compound, the GI50 in [7] was 18.4 µM; in assay [8] it was 14.2 µM; in assay [9], 13.4 µM; in assay [10] it was 21 µM. In addition, the TGI is 43 µM in assay [1]; 31.2 µM in assay [2]; 87.4 µM in assay [3]; more than 100 µM in assay [4]; 35.2 µM in assay [5]; 76.5 µM in [6]. The TGI in [7] is more than 100 µM; in assay [8], 40.4 µM; in assay [9], 34 µM; in [10], more than 100 µM.

Regarding `COc1ccc(C2C3=C(COC3=O)N(CCO)c3cc4c(cc32)CCC4)cc1OC` (stereo not given), the GI50 in [1] was 0.62 µM; in assay [2] it was 0.246 µM; in assay [3], 0.746 µM; in assay [4], 1.08 µM; in assay [5], 0.253 µM; in assay [6], 0.127 µM. For the same compound, the GI50 in assay [7] is 0.858 µM; in assay [8], 0.945 µM; in [9], 0.496 µM; in [10], 1.15 µM. The TGI in assay [1] is more than 10.3 µM; in assay [2], more than 50 µM; in assay [3], more than 50 µM; in [4], more than 50 µM; in [5], 2.48 µM; in [6], 0.332 µM. Further, the TGI in assay [7] was more than 50 µM; in [8], more than 16.3 µM; in assay [9] it was 6.43 µM; in assay [10], more than 50 µM.

For `COc1ccc(CN[C@H]2CCc3cc(OC)c(OC)c(OC)c3-c3ccc(SC)c(=O)cc32)c(OC)c1OC`, the TGI in assay [1] is 0.03 µM; in [2], 0.257 µM; in assay [3], more than 100 µM; in assay [4], more than 100 µM; in assay [6], 0.0618 µM and 0.028 µM; in assay [7], more than 100 µM. The TGI in assay [8] is 0.0413 µM and 0.0657 µM; in [9] it was 0.0478 µM and 0.0387 µM; in assay [10], 0.0444 µM and 0.103 µM. In addition, the GI50 was 0.375 µM in [4]; 5.77 µM in assay [5]; less than 0.01 µM in assay [6]; 0.0238 µM in assay [8]; 0.01 µM in assay [9]; 0.0299 µM in assay [10].

These data come from PubChem BioAssay (NCI).
